Data: patent publication US7344829B2, “Methods for detecting the efficacy of anticancer treatments” (Board of Regents, the University of Texas System, priority 2000, dated 2008)
pIC50: −log10 of the molar value. Read-outs that look alike come from different tables or passages of the source.

How the values were obtained:
[1] = biological target: c-Src (Homo sapiens, UniProt P12931); assay: In vitro kinase filter binding assay, c-Src; type: biochemical
Method: (§1) Preparation of Enzymes and Kinase Assays. In vitro enzyme assays using EGF-R (McGlynn et al. 1992a), Abl (Geissler et al. 1992), and c-Src (Geissler et al. 1990) protein tyrosine kinases were performed in 96-well plates as a filter binding assay. Briefly, EGF-R intracellular kinase domain (EGF-R-ICD) was assayed in 20 mM Tris-HCl, pH 7.5, 10 mM MnCl2, 10 μM Na3VO4, 1 mM DTT, 0.1 μCi/assay [γ-^33P]ATP, 0.4 μM ATP, 2 μ/ml poly(Glu,Tyr 4:1) (Sigma P275), 1% DMSO, and 30 ng EGF-R-ICD in a total volume of 30 μl. […] Src kinase (60 μg/ml) was preactivated with 50 μM ATP for 10 min at room temperature, and kinase inhibition was measured in 20 mM Tris-HCl, pH 7.5, 10 mM MgCl2, 10 μM Na3VO4, 1 mM DTT, 0.1 μCi/assay (=30 μl ) [γ-^33P]ATP, 20 μM ATP, 25 μg/ml poly(Glu,Tyr 4:1), 1% DMSO, and 10 ng c-Src enzyme.
(§2) GST-fused kinase domains of Kdr, Flt-1, Flk, Tek, c-Met, and c-Kit were expressed in baculovirus and purified over glutathione-Sepharose. Kinase inhibition was measured by detecting the decrease in phosphorylation of poly(Glu,Tyr 4:1) essentially as previously described for EGF-R. Each kinase was incubated under optimized buffer conditions in 20 mM Tris-HCl, pH 7.5, 1–3 mM MnCl2, 3–10 mM MgCl2, 10 μM Na3VO4, 1 mM DTT, 0.2 μCi/[γ-^33P]ATP, 1–8 μM ATP, 3–8 μg/ml poly(Glu,Tyr 4:1), 1% DMSO in a total volume of 30 μl in the presence or absence of PKI166 for 10 min at ambient temperature. […]

[2] = biological target: PKC-α (Homo sapiens, UniProt P17252); assay: PKC inhibition assay; type: biochemical
Method: GST-fused kinase domains of Kdr, Flt-1, Flk, Tek, c-Met, and c-Kit were expressed in baculovirus and purified over glutathione-Sepharose. Kinase inhibition was measured by detecting the decrease in phosphorylation of poly(Glu,Tyr 4:1) essentially as previously described for EGF-R. Each kinase was incubated under optimized buffer conditions in 20 mM Tris-HCl, pH 7.5, 1–3 mM MnCl2, 3–10 mM MgCl2, 10 μM Na3VO4, 1 mM DTT, 0.2 μCi/[γ-^33P]ATP, 1–8 μM ATP, 3–8 μg/ml poly(Glu,Tyr 4:1), 1% DMSO in a total volume of 30 μl in the presence or absence of PKI166 for 10 min at ambient temperature. Reactions were terminated by adding 10 μl of 250 mM EDTA, and the reaction mixture was transferred onto an Immobilon-PVDG membrane (Millipore, Bedford, Mass.). Following a washing (0.5% H3PO4), a soaking in EtOH, and drying, filters were counted in a liquid scintillation counter. IC50 values for PKI166 were calculated by linear regression analysis of the percentage inhibition. Inhibition of Cdc2/cyclin B protein kinase (Arion et al. 1988; Partanen et al. 1991) and PKC (McGlynn et al. 1992b) was assayed as previously described.

[3] = tested on: IL-8; assay: In vitro expression of IL-8 by L3.6pl cells (ELISA); type: cell-based, human; settings: 72 h, 1 μM PKI166 or 10 nM gemcitabine, control 1440 pg/ml
Method: (§3) In vitro Expression of VEGF and IL-8. L3.6pl cells (2000 cells/38 mm^2 well) were plated into 96-well plates in 200 μl supplemented DMEM containing 5% FBS for 24 h, and then treated with 0.05, 0.5, or 1 μM PKI166. Supplemented DMEM (5% FBS) and human IgG (10 μg/ml) served as controls. Seventy-two hours later, the culture supernatants were collected, and the level of VEGF and IL-8 proteins (corrected for cell number) were determined by Quantikine ELISA kits.

[4] = biological target: T1, c-Abl (Homo sapiens, UniProt P00519); assay: In vitro kinase filter binding assay, c-Abl kinase domain; type: biochemical; settings: c-Abl tyrosine kinase
T1 construct: The His-tagged kinase domain of c-Abl was cloned and expressed in the baculovirus/Sf9 system; His; made in house; host or cells: baculovirus/Sf9
T1 sequence (P00519 242-493 limits assumed): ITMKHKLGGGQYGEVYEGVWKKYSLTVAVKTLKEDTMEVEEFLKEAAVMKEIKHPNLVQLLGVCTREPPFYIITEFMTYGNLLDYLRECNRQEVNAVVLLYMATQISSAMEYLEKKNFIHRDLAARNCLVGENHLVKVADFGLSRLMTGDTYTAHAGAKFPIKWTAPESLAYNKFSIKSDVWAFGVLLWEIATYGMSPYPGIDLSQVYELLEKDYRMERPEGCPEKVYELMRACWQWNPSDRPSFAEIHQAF
Method: as §1, §2

[5] = biological target: T2, EGF-R (Homo sapiens, UniProt P00533); assay: Western blot analysis of EGF-R autophosphorylation in L3.6pl cells; type: cell-based; settings: 60 min pretreatment, 0.01–0.5 μM, then EGF
T2 construct: endogenous in cells; host or cells: L3.6pl human pancreatic cancer cells
T2 sequence (P00533 25-1210): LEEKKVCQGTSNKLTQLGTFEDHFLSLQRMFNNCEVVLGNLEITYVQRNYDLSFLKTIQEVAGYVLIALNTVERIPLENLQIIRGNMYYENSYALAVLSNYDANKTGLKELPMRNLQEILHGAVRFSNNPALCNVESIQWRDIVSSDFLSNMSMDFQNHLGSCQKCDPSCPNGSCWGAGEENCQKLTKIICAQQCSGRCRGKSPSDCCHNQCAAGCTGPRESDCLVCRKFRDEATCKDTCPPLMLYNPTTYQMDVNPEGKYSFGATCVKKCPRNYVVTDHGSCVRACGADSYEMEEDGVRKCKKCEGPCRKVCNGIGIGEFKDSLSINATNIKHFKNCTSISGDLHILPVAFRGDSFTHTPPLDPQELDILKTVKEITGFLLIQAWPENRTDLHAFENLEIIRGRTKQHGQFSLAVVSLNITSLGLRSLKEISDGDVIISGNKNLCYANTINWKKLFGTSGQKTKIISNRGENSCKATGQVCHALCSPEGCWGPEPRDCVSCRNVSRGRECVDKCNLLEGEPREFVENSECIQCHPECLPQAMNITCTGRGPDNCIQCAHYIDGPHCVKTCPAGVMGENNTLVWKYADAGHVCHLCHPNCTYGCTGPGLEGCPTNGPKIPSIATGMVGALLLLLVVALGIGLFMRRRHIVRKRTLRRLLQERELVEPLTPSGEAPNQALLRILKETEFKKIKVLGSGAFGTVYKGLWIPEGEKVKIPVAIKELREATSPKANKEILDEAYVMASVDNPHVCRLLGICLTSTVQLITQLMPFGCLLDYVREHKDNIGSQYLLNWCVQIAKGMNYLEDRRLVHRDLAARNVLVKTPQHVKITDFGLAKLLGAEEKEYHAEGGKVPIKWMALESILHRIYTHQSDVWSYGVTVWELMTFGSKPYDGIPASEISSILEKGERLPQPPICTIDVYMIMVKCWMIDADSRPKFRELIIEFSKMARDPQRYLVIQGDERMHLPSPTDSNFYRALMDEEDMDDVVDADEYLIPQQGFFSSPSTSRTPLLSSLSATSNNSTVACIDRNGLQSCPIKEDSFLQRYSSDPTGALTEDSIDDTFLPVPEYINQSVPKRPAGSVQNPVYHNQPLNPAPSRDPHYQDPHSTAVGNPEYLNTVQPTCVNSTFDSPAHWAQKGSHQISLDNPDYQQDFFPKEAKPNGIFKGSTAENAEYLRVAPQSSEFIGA
Method: Western Blot Analysis of EGF-R Autophosphorylation following Treatment with PKI166. […] without 40 ng/ml rhEGF for 10 min, washed, and scraped into PBS containing 5 mM EDTA and 1 mM Na Orthovanadate, and centrifuged, and the pellet resuspended in lysis buffer (20 mM Tris-HCl, pH 8.0, 137 mM NaCl, 10% glycerol, 2 mM EDTA, 1 mM phenylmethylsulfonyl fluoride, 20 μM leupeptin, and 0.15 U/ml aprotinin) sonicated, and centrifuged to recover […] protein. Immunoprecipitation was performed using Mab anti-EGF-R (clone EGF-RI) as described previously (Perrotte et al. 1999; Parker et al. 1998). Immunoprecipitates were analyzed on 7.5% NaDodSO4-PAGE and transferred onto 0.45-μm nitrocellulose membranes. The filters were blocked with 3% bovine serum albumin in TDS (20 mM Tris-HCl, pH 7.5, 150 mM NaCl), probed with either polyclonal sheep anti-human EGF-R (1:1000) or monoclonal anti-phosphotyrosine (Mab 4G10) (1:2000) in TTBS (0.1% Tween 20 in TBS), and incubated with horseradish peroxidase-conjugated donkey anti-sheep IgG (1:2000) (Sigma Immunochemicals, St. Louis, Mo.) or sheep anti-mouse IgG (1:2000), respectively, in TTBS. Protein bands were visualized by ECL detection system. For an additional experiment, serum-starved L3.6pl cells were treated with gemcitabine (10 nM) with or without PKI166 (0.05, 0.5 μM) for 1 h, and then incubated with or without rhEGF (40 ng/ml) for 10 min. […]

[6] = tested on: VEGF; assay: In vitro expression of VEGF by L3.6pl cells (ELISA); type: cell-based, human; settings: 72 h, 1 μM PKI166 or 10 nM gemcitabine, control 1400 pg/ml
Method: as §3

c-Src, sequence (P12931 whole entry, species assumed, the tested form may be a part): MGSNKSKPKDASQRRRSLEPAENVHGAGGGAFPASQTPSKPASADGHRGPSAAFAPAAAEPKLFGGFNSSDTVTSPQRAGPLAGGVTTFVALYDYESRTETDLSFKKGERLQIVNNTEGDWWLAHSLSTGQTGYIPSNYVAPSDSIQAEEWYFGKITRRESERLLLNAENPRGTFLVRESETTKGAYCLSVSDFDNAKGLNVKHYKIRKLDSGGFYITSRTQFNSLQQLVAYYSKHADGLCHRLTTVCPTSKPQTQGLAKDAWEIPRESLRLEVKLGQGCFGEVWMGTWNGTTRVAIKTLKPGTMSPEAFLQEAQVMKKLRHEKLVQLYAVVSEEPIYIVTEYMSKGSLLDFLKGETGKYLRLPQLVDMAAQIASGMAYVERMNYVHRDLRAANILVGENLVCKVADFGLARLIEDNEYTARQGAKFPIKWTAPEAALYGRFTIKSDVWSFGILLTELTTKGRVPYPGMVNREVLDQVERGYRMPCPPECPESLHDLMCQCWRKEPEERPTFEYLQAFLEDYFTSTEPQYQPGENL

## C[C@@H](Nc1ncnc2[nH]c(-c3ccc(O)cc3)cc12)c1ccccc1 [PKI166, 4-(R)-phenethylamino-6-(hydroxyl) phenyl-7H-pyrrolo[2.3-d]-pyrimidine]
[1]
  pIC50: 6.99
[1]; text
  pIC50: 6.89
[2]
  pIC50: < 4.00
[3]
  IL-8 in culture supernatant: 640 pg/mL
[4]
  pIC50: 7.55
[5]
  Inhibition of EGF-stimulated EGF-R autophosphorylation: inhibited the autophosphorylation in a dose-dependent manner
[6]
  VEGF in culture supernatant: 180 pg/mL
